Assay results taken from patent publication US7964625B2, “Antibiotics comprising bis(1-aryl-5-tetrazoly1)methane derivatives” (Nederlandse Organisatie Voor …, priority 2005, dated 2011).
Converted amounts (≈) assume the structure as drawn. Where two headings read alike, the source gives them in different places.

Experiments:
S. aureus ATCC 29213 = test: MIC test, single strain S. aureus ATCC 29213; format: cell-based; settings: for MIC: Staphylococcus aureus
Description: (§1) MIC test were performed according to standard methodology: M7-A6-“Methods for Dilution Antimicrobial Susceptibility Tests for Bacteria That Grow Aerobically”; Approved Standard, Sixth Edition Clinical and Laboratory Standards Institute 2005 (CLSI/formerly NCCLS).
(§2) Table II lists the results of 6 different compounds according to Formula (I) on single strains of S. aureus as MIC values expressed in micrograms per milliliter.
(§3) Table IV lists additional MIC data on single strains of S. aureus as MIC values expressed in micrograms per milliliter. Again BAS 00160352 (NewCo003) is tested, next to its monochloric pendant (NewCo0030) and several of the new compounds of Table I. Some of the experiments were carried out in duplicate. Strains TTC03.0236 and TTC03.0239 are two MRSA strains obtained from the Utrecht University Medical Centre (UMC 01-8756/140 and UMC 03-543155, respectively). Several of the new compounds of Table I appear to be at least as active as NewCo003.

S. aureus TTC03.0236 = test: MIC test, single strain S. aureus TTC03.0236 (MRSA); format: cell-based; settings: Table IV, MRSA strain UMC 01-8756/140, some in duplicate
Description: as §1, §3

S. aureus TTC03.0239 = test: MIC test, single strain S. aureus TTC03.0239 (MRSA); format: cell-based; settings: Table IV, MRSA strain UMC 03-543155, some in duplicate
Description: as §1, §3

S. aureus MW2 = test: MIC test, single strain S. aureus MW2; format: cell-based; settings: for MIC S. aureus MW2: Table II; for MIC: Staphylococcus aureus, MW2, Table II
Description: as §1, §2

S. aureus N315 = test: MIC test, single strain S. aureus N315; format: cell-based; settings: for MIC S. aureus N315: Table II; for MIC: Staphylococcus aureus, N315, Table II
Description: as §1, §2

S. aureus strains = test: MIC test on multiple strains of S. aureus; format: cell-based; settings: for Range MIC (highest): highest value found; for Range MIC (lowest): lowest value found
Description: as §1

MRSA 2141 = test: Local thigh muscle infection with MRSA 2141 in the mouse, CFU outgrowth; format: in vivo; settings: for Reduction of MRSA 2141 CFU in thigh muscle: 24 hours after dosing, vs vehicle
Description: The purpose of this study was to investigate the antibiotic efficacy of different doses of compound BAS00160352 (NewCo003) against a local infection with MRSA 2141 in the mouse. Thirty mice were treated intravenously with 0.05, 0.5 or 5.0 mg/kg body weight, respectively. Outgrowth of the infection was used to establish drug efficacy.
For each administered dose the appropriate stock solution was made as a 1 ml aliquot of the test substance in the vehicle (DMSO). The stock solutions were stored at 2-8° C. for 16 hours.
(§4) The test substances were administered as a solution in dimethylsulfoxide (DMSO). The test substance was administered as 20 μl injections per mouse at all dose levels. Vancomycin was used as positive control and injected intravenously as a 10 mg/ml solution in DMSO (20 μl per mouse). Fresh dilutions of the test substance in vehicle were provided, stored at 2-8° C., and used within 18 hours after preparation. Shortly before injection the test substance was warmed to room temperature.
The mice were injected i.m. with 22E05 MRSA 2141 bacteria, strain 2141 in the right thigh muscle, followed one day later by an i.v. injection of the test compound, vancomycin or vehicle in the tail vein. 24 hours later mice were sacrificed, blood was collected by heart puncture and the right thigh muscle was removed. Plasma was prepared from blood samples and stored at −80°±10° C. for possible future analysis. Thigh muscles were weighted and homogenized using an Ultra-Turrax® and dilutions of the homogenate were prepared in saline. Limiting dilutions were plated onto agar plates and two days later the number of MRSA 2141 CFU were determined for each individual mouse as an indication of bactericidal activity of the compound. Additionally, tests were performed to determine if the bacteria used are still oxacillin resistant Staphylococcus aureus. This was done before injection and on pooled thigh muscle isolates per group. […] In vivo antibiotic activity is determined by a CFU reduction of >90% (1 log reduction) in comparison to the negative control (vehicle only). […]

[1] = Observation for adverse side effects after i.v. injection in infected mice; format: in vivo; settings: mouse, i.v., 0.05, 0.5 or 5.0 mg/kg in DMSO
Description: as §4
The mice were injected i.m. with 22E05 MRSA 2141 bacteria, strain 2141 in the right thigh muscle, followed one day later by an i.v. injection of the test compound, vancomycin or vehicle in the tail vein. 24 hours later mice were sacrificed, blood was collected by heart puncture and the right thigh muscle was removed. Plasma was prepared from blood samples and stored at −80°±10° C. for possible future analysis. Thigh muscles were weighted and homogenized using an Ultra-Turrax® and dilutions of the homogenate were prepared in saline. Limiting dilutions were plated onto agar plates and two days later the number of MRSA 2141 CFU were determined for each individual mouse as an indication of bactericidal activity of the compound. […] In vivo antibiotic activity is determined by a CFU reduction of >90% (1 log reduction) in comparison to the negative control (vehicle only).

[2] = ATCC29213, Table II, single strain, read-out: MIC S. aureus ATCC 29213
[3] = Staphylococcus aureus, 60 tested S. aureus strains, read-out: MIC 50
[4] = Staphylococcus aureus, 60 tested S. aureus strains, read-out: MIC 90

SMILES: Cc1ccc(-n2nnnc2C(Cl)c2nnnn2-c2ccc(C)cc2)cc1 [NewCo005, Bis-(1-p-tolyl-5-tetrazolyl)-chloromethane]
- MIC (S. aureus ATCC 29213; [2]): 4 µg/mL (≈ 10.9 µM)

SMILES: Clc1cccc(-n2nnnc2C(Cl)(Cl)c2nnnn2-c2cccc(Cl)c2Cl)c1Cl [NewCo0023, Bis-(1-o,m-dichlorobenzene-5-tetrazolyl)-dichloromethane]
- MIC S. aureus ATCC 29213 (S. aureus ATCC 29213; Table IV, some in duplicate): 0.19 micrograms per milliliter
- MIC S. aureus TTC03.0236 (S. aureus TTC03.0236): 0.19 micrograms per milliliter
- MIC S. aureus TTC03.0239 (S. aureus TTC03.0239): 0.39 micrograms per milliliter

SMILES: COc1ccc(Cl)cc1-n1nnnc1C(Cl)(Cl)c1nnnn1-c1cc(Cl)ccc1OC [NewCo0022]
- MIC S. aureus ATCC 29213 (S. aureus ATCC 29213; Table IV, some in duplicate): ≦0.05 micrograms per milliliter
- MIC S. aureus TTC03.0236 (S. aureus TTC03.0236): 0.1 micrograms per milliliter
- MIC S. aureus TTC03.0239 (S. aureus TTC03.0239): 0.19 micrograms per milliliter

SMILES: Clc1ccc(-n2nnnc2C(Cl)(Cl)c2nnnn2-c2ccc(Cl)cc2)cc1 [NewCo001, Bis-(1-p-chlorobenzen-5-tetrazolyl)-dichloromethane]
- MIC S. aureus ATCC 29213 (S. aureus ATCC 29213; Table II, single strain): 16 micrograms per milliliter
- MIC S. aureus MW2 (S. aureus MW2): 32 micrograms per milliliter
- MIC S. aureus N315 (S. aureus N315): 2 micrograms per milliliter
- MIC50 (S. aureus strains; 60 tested S. aureus strains): 4 microgram/milliliter
- MIC90 (S. aureus strains; 60 tested S. aureus strains): 16 microgram/milliliter
- Range MIC (highest) (S. aureus strains; 60 tested S. aureus strains): >32 microgram/milliliter
- Range MIC (lowest) (S. aureus strains; 60 tested S. aureus strains): 1 microgram/milliliter

SMILES: COc1ccccc1-n1nnnc1C(Cl)(Cl)c1nnnn1-c1ccccc1OC [NewCo007, Bis-(1-o-methoxybenzene-5-tetrazolyl)-dichloromethane]
- MIC S. aureus ATCC 29213 (S. aureus ATCC 29213; Table IV, some in duplicate): 1.56 micrograms per milliliter
- MIC S. aureus TTC03.0236 (S. aureus TTC03.0236): 1.56 micrograms per milliliter
- MIC S. aureus TTC03.0239 (S. aureus TTC03.0239): 1.56 micrograms per milliliter

SMILES: Cc1ccc(-n2nnnc2C(Cl)(Cl)c2nnnn2-c2ccc(C)cc2)cc1 [NewCo002, Bis-(1-p-tolyl-5-tetrazolyl)-dichloromethane]
- MIC (S. aureus ATCC 29213; [2]): > 32 µg/mL
- MIC (S. aureus MW2): > 32 µg/mL
- MIC (S. aureus N315): 4 µg/mL (≈ 9.97 µM)
- Range MIC (highest) (S. aureus strains; 60 tested S. aureus strains): >32 microgram/milliliter
- Range MIC (lowest) (S. aureus strains; 60 tested S. aureus strains): 0.5 microgram/milliliter
- MIC50 (S. aureus strains; [3]): 32 µg/mL (≈ 79.7 µM)
- MIC90 (S. aureus strains; [4]): > 32 µg/mL

SMILES: COc1ccccc1-n1nnnc1C(Cl)(Cl)c1nnnn1-c1ccccc1OC [NewCo006, Bis-(1-o-methoxybenzene-5-tetrazolyl)-dichloromethane]
- MIC S. aureus ATCC 29213 (S. aureus ATCC 29213; Table II, single strain): 4 micrograms per milliliter

SMILES: Fc1ccccc1-n1nnnc1C(Cl)(Cl)c1nnnn1-c1ccccc1F [NewCo0018, Bis-(1-o-fluorobenzene-5-tetrazolyl)-dichloromethane]
- MIC S. aureus ATCC 29213 (S. aureus ATCC 29213; Table IV, some in duplicate): 1.56 micrograms per milliliter
- MIC S. aureus TTC03.0236 (S. aureus TTC03.0236): 0.78 micrograms per milliliter

SMILES: ClC(Cl)(c1nnnn1-c1ccccc1)c1nnnn1-c1ccccc1 [NewCo004, Bis-(1-benzene-5-tetrazolyl)-dichloromethane]
- MIC S. aureus ATCC 29213 (S. aureus ATCC 29213; Table II, single strain): 1 micrograms per milliliter
- MIC S. aureus MW2 (S. aureus MW2): 1 micrograms per milliliter
- MIC S. aureus N315 (S. aureus N315): 0.25 micrograms per milliliter
- MIC50 (S. aureus strains; 60 tested S. aureus strains): 1 microgram/milliliter
- MIC90 (S. aureus strains; 60 tested S. aureus strains): 2 microgram/milliliter
- Range MIC (highest) (S. aureus strains; 60 tested S. aureus strains): 4 microgram/milliliter
- Range MIC (lowest) (S. aureus strains; 60 tested S. aureus strains): 0.25 microgram/milliliter

SMILES: Cc1ccccc1-n1nnnc1C(Cl)(Cl)c1nnnn1-c1ccccc1C [NewCo003, Bis-(1-o-tolyl-5-tetrazolyl)-dichloromethane]
- MIC (S. aureus ATCC 29213; [2]): 0.06 µg/mL (≈ 0.15 µM)
- MIC (S. aureus ATCC 29213; ATCC29213, Table IV, some in duplicate, read-out: MIC S. aureus ATCC 29213): 0.19 µg/mL (≈ 0.474 µM)
- MIC S. aureus ATCC 29213 (S. aureus ATCC 29213; Table IV, some in duplicate): 0.1 micrograms per milliliter
- MIC (S. aureus MW2): 0.06 µg/mL (≈ 0.15 µM)
- MIC (S. aureus N315): 0.125 µg/mL (≈ 0.312 µM)
- Range MIC (highest) (S. aureus strains; 60 tested S. aureus strains): 0.5 microgram/milliliter
- Range MIC (lowest) (S. aureus strains; 60 tested S. aureus strains): 0.03 microgram/milliliter
- MIC50 (S. aureus strains; [3]): 0.06 µg/mL (≈ 0.15 µM)
- MIC90 (S. aureus strains; [4]): 0.12 µg/mL (≈ 0.299 µM)
- Trend of dose-dependent efficacy (MRSA 2141; i.v., 0.05 to 5.0 mg/kg): no significant trend of dose-dependent efficacy was observed
- Reduction of MRSA 2141 CFU in thigh muscle (MRSA 2141; single i.v. dose 0.05, 0.5 or 5.0 mg/kg one day after infection): Approximately 2 Log reduction
- Signs of adverse side effects during observation after injection [1]: no signs of adverse side effects were observed

SMILES: CN[C@H](CC(C)C)C(=O)N[C@H]1C(=O)N[C@@H](CC(N)=O)C(=O)N[C@H]2C(=O)N[C@H]3C(=O)N[C@H](C(=O)N[C@H](C(=O)O)c4cc(O)cc(O)c4-c4cc3ccc4O)[C@H](O)c3ccc(c(Cl)c3)Oc3cc2cc(c3O[C@@H]2O[C@H](CO)[C@@H](O)[C@H](O)[C@H]2O[C@H]2C[C@](C)(N)[C@H](O)[C@H](C)O2)Oc2ccc(cc2Cl)[C@H]1O [vancomycin, reference compound]
- MIC (S. aureus ATCC 29213; ATCC29213, read-out: MIC S. aureus ATCC 29213, Table IV, some in duplicate): 1.56 µg/mL (≈ 1.08 µM)
- MIC S. aureus ATCC 29213 (S. aureus ATCC 29213; Table IV, some in duplicate, listed as vancomycine): 0.78 micrograms per milliliter
- Range MIC (highest) (S. aureus strains; 60 tested S. aureus strains): 4 microgram/milliliter
- Range MIC (lowest) (S. aureus strains; 60 tested S. aureus strains): 0.12 microgram/milliliter
- MIC50 (S. aureus strains; Staphylococcus aureus): 0.5 µg/mL (≈ 0.345 µM)
- MIC90 (S. aureus strains; Staphylococcus aureus): 1 µg/mL (≈ 0.69 µM)
- Reduction of MRSA 2141 CFU in thigh muscle (MRSA 2141; positive control, single i.v. dose 10 mg/kg): Over 1 Log reduction

SMILES: COc1ccc(-n2nnnc2C(Cl)(Cl)c2nnnn2-c2ccc(OC)c(Cl)c2)cc1Cl [NewCo0021, Bis-(1-m-chloro-p-methoxybenzene-5-tetrazolyl)-dichloromethane]
- MIC S. aureus ATCC 29213 (S. aureus ATCC 29213; Table IV, some in duplicate): 1.56 micrograms per milliliter
- MIC S. aureus TTC03.0236 (S. aureus TTC03.0236): 0.78 micrograms per milliliter
- MIC S. aureus TTC03.0239 (S. aureus TTC03.0239): 1.56 micrograms per milliliter
